In publication PMC6271945, “Avicequinone C Isolated from Avicennia marina Exhibits 5α-Reductase-Type 1 Inhibitory Activity Using an Androgenic Alopecia Relevant Cell-Based Assay System” (Molecules, 2014):

Key:
[1] = target: T1, 5α-reductase type 1 (5α-R1) (Homo sapiens, UniProt P18405); assay: HHDPC cell-based assay of testosterone to […]α-DHT conversion (endogenous […]α-R1), non-radioactive TLC detection
T1 construct: gene SRD5A1
T1 sequence (P18405 1-259): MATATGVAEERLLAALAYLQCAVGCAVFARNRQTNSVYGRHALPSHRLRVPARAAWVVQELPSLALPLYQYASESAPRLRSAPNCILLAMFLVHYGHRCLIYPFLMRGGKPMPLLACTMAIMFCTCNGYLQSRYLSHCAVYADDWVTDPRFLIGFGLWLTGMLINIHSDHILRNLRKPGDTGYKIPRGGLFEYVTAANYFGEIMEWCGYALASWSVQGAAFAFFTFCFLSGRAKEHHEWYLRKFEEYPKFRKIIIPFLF

[2] = target: T1, 5α-reductase type 1 (5α-R1); assay: HHDPC cell-based assay of testosterone to […]α-DHT conversion (endogenous […]α-R1), TLC detection; positive control

Row | IC50 [1] [µM] | Compound | HHDPC cell-based assay of testosterone to 5α-DHT conversion (endogenous 5α-R1), [2]
1 | 38.8 ± 1.29 | CC(C)(O)c1cc2c(o1)C(=O)c1ccccc1C2=O [G1, naphtho 2'-(1-hydroxy-1-methylethyl)[2,3-β]furan-1,4-dione] | 
2 |  | C[C@]12C=CC(=O)N[C@@H]1CC[C@@H]1[C@@H]2CC[C@]2(C)[C@@H](C(=O)Nc3cc(C(F)(F)F)ccc3C(F)(F)F)CC[C@@H]12 [dutasteride] | complete inhibition at 0.1 and 0.01 µg/mL; 16.5% at 0.001
